Assay: lipophilicity test, octanol/PBS partition with gamma counter
Type: physicochemical

With CCOC(=O)c1ncn2c1CN(C)C(=O)c1cc([18F])ccc1-2 [F-18-flumazenil] the “log P value” was 1.49±0.12.

Reference: patent publication US20160016958A1, “Method of Labeling Flumazenil with F-18 and Separating and Purifying F-18-Flumazenil” (Institute of Nuclear Energy Research, Atomic Energy …, priority 2014, published 2016)
